Marks after values point to notes of the source that are not given here.
Experiments:
Type in all cases: cell-based, murine
cortical neurospheres = assay: Cortical neurosphere model, secondary sphere formation; conditions: for F/SP × 10^2 / Cells/Founder (F) / Secondary Spheres (SP): at day 10; for Cells/Founder (F) / Secondary Spheres (SP): mean ± SD of three experiments; for secondary spheres per primary sphere: primary spheres grown 2 weeks with factor, secondary spheres in standard media
Description: Murine E13 cerebral cortices were dissected, the ventricular zone isolated, dissected free of the meninges and utilized as a source for the generation of clonal neurspheres. The resulting cells were dispersed by aspiration to produce single cells and cells expressing the […], CD24 as previously described (Rietze et al., 2001), and peanut agglutinin antigen (PNA) were sorted using a FASC Vantage SE cell sorter at a low gate (CD24^low/PNA^low), and the cells were subjected to immunofluoresence microscopy using an antibody against CD24 (Rietze et al., 2001, Nature 412:736-739). Double-positive cells (2×10^3 /ml) were plated in suspension as described (Reynolds et al., 1992, J. Neurosci. 12:4565-4574; Reynolds et al., 1992, Science 255:1707-1710) and secondary neurospheres generated 14 days later by isolating single spheres followed by trypsin digestion of each sphere. Cells obtained from the sphere were placed in suspension culture at a clonal cell seed density and colonies selected.
The E14 prefrontal ventricular zone was dissected and plated at a clonal neurosphere-forming density in the presence of either sJ1, sDl1, thrombin, TRAP or no supplementation. After 2 weeks, the clones were dissociated to single cells and secondary spheres were generated using standard media with no supplementation (Reynolds et al., 1992, J. Neurosci. 12:4565-4574).
Secondary spheres (SP) are formed from the dissociation of founder (F) spheres. The data presented are the number of colonies (mean ± SD of three experiments). (*=p#0.05).

NCSC populations [1] = assay: Clonogenic differentiation of primary NCSC clones (differentiation markers, GFAP immunoreactivity); conditions: for NCSC clones not expressing gliogenic or neurogenic differentiation markers: after 7 days of expansion
Experimental: (§1) Clonogenic assays were performed as described (Stemple et al., 1992, Cell 71:973-985). Briefly, populations of murine NCSC were plated at a clonal density and maintained for a maximum of 14 days in Morrison media supplemented with 15% chick embryo extract (Morrison et al., 1999, Cell 96:737-749). The resulting clones were fixed in an acetic acid:ethanol solution (2:1) and stained with antibodies against peripherin (Chemicon) to detect neurons, smooth muscle actin (Sigma) to detect myofibroblasts, and GFAP (Chemicon) to detect Schwann cells. Clones were scored based on the appearance of just one phenotypic representative. The number and percentage of clones containing neurons only (N), Schwann cells only (S), myofibroblasts only (M), N+S, N+M, N+S+M, and S+M were scored at day 14 unless otherwise stated. The production of each representative phenotype in each individual clone was also scored to complement the clonal population assay.
Instead of examining the NCSC progeny after 14 days, developing clones were examined beginning at day 2 in order to determine the time period when gliogenic differentiation was initiated.
Specifically, clonogenic differentiation and serial subcloning assays were performed using NCSC clones incubated with either thrombin, sDl1, sJ1 or TRAP.

NCSC populations [2] = assay: Serial subcloning and clonogenic differentiation of secondary NCSC; set-up: G (glial only) colonies / Sm (smooth muscle only) colonies / G + Sm colonies: unit not given here; conditions: for G (glial only) colonies / G + Sm colonies / N (neurons only) colonies / N + G + Sm (trifatent) colonies / N + G colonies / N + Sm colonies / Sm (smooth muscle only) colonies: differentiation profile of secondary NCSC clones; for G (glial only) colonies / G + Sm colonies / N (neurons only) colonies / N + G + Sm (trifatent) colonies / N + G colonies / N + Sm colonies / Sm (smooth muscle only) colonies / Secondary NSSC/ Founder: mean ± SD of three experiments; for clones that were trifatent (neurons, glial, and smooth muscle progeny): secondary clones from treated founder clones; for Secondary NSSC/ Founder: secondary stem cells from NCSC founders after ten days of expansion
Experimental: as §1
In order to generate secondary NCSC populations, founder clones originating from differentiating E10 clones at distinct time points during NCSC differentiation (days 2 through 18) were treated with trypsin and replated at a cell clonal density using methods previously described (Kubu et al., 2000, Genomics 70:150-152). The resulting cells were subjected to immunofluorescence microscopy using both p75^+ and P0^− antibodies (Kubu et al., 2000, Genomics 70:150-152) and the p75^+/P0^− cells identified as putative stem cells. All non-p75^+/P0^− cells were removed from the dish with a tungsten needle. The cultures of secondary NCSC clones were subjected to the clonogenic assay as described above.

[3] = system: Nestin, Nucleostemin, and Bmi1 transcripts; assay: RT-PCR of stem cell marker transcripts; conditions: for levels of Nestin, Nucleostemin and Bmi1 transcripts: p75+/P0- neural crest stem cells, 24 and 48 hours; for relative expression of Nestin, Nucleostemin and Bmi1 transcripts: primary and secondary neurosphere cultures
Experimental: RT-PCR was performed with 1 μg RNA using the Platinum Taq One Step RT-PCR kit (Invitrogen) as follows: RT (30 minutes at 50° C.), PCR (40 cycles at 94° C. for 15 seconds, at 58° C. for 30 seconds and 72° C. for 1 minute). All amplified cDNA was visualized with ethidium bromide followed by 1.5% agarose gel electrophoresis. RT-PCR analysis of fgf and gapdh was performed as previously described elsewhere herein. RT-PCR analysis of stem cell RNA was performed as previously described (Verdi et al., 1994, Neuron 13:1359-1372; Verdi et al., 1996, Neuron 16:515-527) using primers generating amplification products of Nucleostemin from 894 to 1304 of the mouse cDNA (sense: Nucleostemin 894 5′-CAAATGTGGGGAAAAGCAGTGTCA-3′ [SEQ ID NO:34] and antisense: Nucleostemin 1304 5′-GCAGGGGGATGGCAATAGTAACC-3′ [SEQ ID NO:35]); Bmi1 from 242 to 632 of mouse cDNA (sense: Bmi 242 5′-AATTAGTCCCAGGGCTTTTCAA-3′ [SEQ ID NO:36] and antisense: Bmi 632 5′-GGGCCATTTCTTCTCCAGGTAT-3′ [SEQ ID NO:37]), and Nestin from 320-748 (sense: Nestin 320 5′-CA ACC TTG CCG AAG AGC TGG-3′ [SEQ ID NO:38] and antisense: Nestin 720 5′-TCTAAGCGACTCTCCGAGCGC-3′ [SEQ ID NO:39]). Each reaction product was measured as a ratio relative to the amplification product of actin and samples were run in triplicate. All RT-PCR experiments were performed at least three times from separate stem cell isolations. Dual Luciferase Reporter Assay

FGF1.A transcript = assay: RT-PCR analysis of FGF1.A mRNA in NCSC; conditions: 48 hours; 7.5 nM sJ1, 5.0 nM sDl1, 10 μg/ml α-thrombin or 5 μg/ml TRAP

Row | Molecule | F/SP × 10^2 (cortical neurospheres) | Cells/Founder (F) (cortical neurospheres) | Secondary Spheres (SP) (cortical neurospheres) | secondary spheres per primary sphere (cortical neurospheres) | NCSC clones not expressing gliogenic or neurogenic differentiation markers (NCSC populations [1]) | percentage of the colony expressing the glial-specific protein (GFAP) (NCSC populations [1]; at day 7) | gliogenic differentiation of NCSC (NCSC populations [1]; two week differentiation assay) | G (glial only) colonies (NCSC populations [2]) | G + Sm colonies (NCSC populations [2]) | N (neurons only) colonies (NCSC populations [2]) | N + G + Sm (trifatent) colonies (NCSC populations [2]) | N + G colonies (NCSC populations [2]) | N + Sm colonies (NCSC populations [2]) | Sm (smooth muscle only) colonies (NCSC populations [2]) | clones that were trifatent (neurons, glial, and smooth muscle progeny) (NCSC populations [2]) | Secondary NSSC/ Founder (NCSC populations [2]) | levels of Nestin, Nucleostemin and Bmi1 transcripts [3] | relative expression of Nestin, Nucleostemin and Bmi1 transcripts [3] | expression of the FGF1.A transcript in NCSC (FGF1.A transcript) | exposure time after which GFAP immunoreactive cells were detected (NCSC populations [1]; NCSC populations)
1 | sJ1: Soluble Jagged1, amino acid residues about 1 to 1067 (SEQ ID NO:3) of full-length human Jagged1 | 10%* | 527 ± 170* | 55 ± 14 | 64±11 | 84±7% | 23±5 | capable of inducing gliogenic differentiation of the NCSC population over the two week period | 7.8 ± 1.4 | 3.4 ± 2.8 | 0 | 74.1 ± 9.1 | 7.0 ± 5.6 | 1.5 ± 1.7 | 6.2 ± 1.0 | 74.1±9% | 26.2 ± 6 | no significant change | elevated | induced the expression of the FGF1.A transcript | 
2 | thrombin | 13%* | 488 ± 166* | 64 ± 11 | 55±14 | 75±11% |  |  | 0 ± 0 | 2.0 ± 2.1 | 0 | 86.8 ± 2.1 | 3.93 ± 3.8 | 4.5 ± 2.1 | 2.6 ± 1.01 | 86.8±2.1% | 36.8 ± 6.3 | no significant change | elevated | induced the expression of the FGF1.A transcript | 
3 | sDl1: soluble non-transmembrane form (extracellular domain) of the Notch ligand Delta1 (protein, left off: small tags and cut ends, soluble non-transmembrane form (extracellular domain) of the Notch ligand Delta1) QVWSSGVFELKLQEFVNKKGLLGNRNCCRGGAGPPPCACRTFFRVCLKHYQASVSPEPPCTYGSAVTPVLGVDSFSLPDGGGADSAFSNPIRFPFGFTWPGTFSLIIEALHTDSPDDLATENPERLISRLATQRHLTVGEEWSQDLHSSGRTDLKYSYRFVCDEHYYGEGCSVFCRPRDDAFGHFTCGERGEKVCNPGWKGPYCTEPICLPGCDEQHGFCDKPGECKCRVGWQGRYCDECIRYPGCLHGTCQQPWQCNCQEGWGGLFCNQDLNYCTHHKPCKNGATCTNTGQGSYTCSCRPGYTGATCELGIDECDPSPCKNGGSCTDLENSYSCTCPPGFYGKICELSAMTCADGPCFNGGRCSDSPDGGYSCRCPVGYSGFNCEKKIDYCSSSPCSNGAKCVDLGDAYLCRCQAGFSGRHCDDNVDDCASSPCANGGTCRDGVNDFSCTCPPGYTGRNCSAPVSRCEHAPCHNGATCHERGHRYVCECARGYGGPNCQFLLPELPPGPAVVDLTEKLEGQGGPFPW | 2.0% | 150 ± 69* | 3 ± 3 | 3±3 | 0±0% |  |  | 72 ± 6.4 | 3.4 ± 2.8 | 0 | 0.5 ± 0.7 | 0 | 0 | 20.5 ± 6.5 | 0.5% | 0.6 ± 1.0 | sharply decreased |  | did not influence the steady-state levels of the FGF1.A transcript | 48 h

From patent publication US20060084599A1, “Compositions, methods and kits relating to notch signaling” (Maine Medical Center, priority 2003, published 2006)
